Measurements from patent US20180179198A1, “TRICYCLIC MODULATORS OF TNF SIGNALING” (AbbVie Inc., priority 2015, published 2018).

target: TNFα trimer (Homo sapiens, UniProt P01375); test: TNFα FP Competitive Binding Assay; conditions: TNFα FP competitive binding assay; class symbols A/B/C; read-out: TNF IC50
Procedure, shortened: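 Fluorescence polarization displacement: 20 nM TNFα trimer (60 nM protein) with 1 nM fluorescein-labelled bis-isoquinoline probe in HEPES/NaCl/EDTA/Triton X-100 buffer. 12-point 1:3 compound series, top final 338 μM (3.4% DMSO) or 100 μM (2.0% DMSO); 18-24 h at 37 °C, then 1 h rt before background-subtracted mP read; variable-slope curve fit.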

Sequence of TNFα trimer (P01375 77-233 limits assumed): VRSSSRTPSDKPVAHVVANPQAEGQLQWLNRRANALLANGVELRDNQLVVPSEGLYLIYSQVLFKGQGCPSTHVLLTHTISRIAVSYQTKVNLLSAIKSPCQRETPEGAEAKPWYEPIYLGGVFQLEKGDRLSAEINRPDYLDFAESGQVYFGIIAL

SMILES	IC50
Cc1ccc(-c2ccc3nc4n(c3c2)C(c2ccccc2)COC4)cn1 (stereo not drawn) [T.18]	1000 to 10000 nM
c1ccc(C2COCc3nc4ccc(-c5cnc6nccnc6c5)cc4n32)cc1 (stereo not drawn) [T.19]	10000 to 100000 nM
CN1CCN(c2ccc(-c3ccc4nc5n(c4c3)C(c3ccccc3)COC5)cn2)CC1 (stereo not drawn) [T.20]	1000 to 10000 nM
c1ccc(C2COCc3nc4ccc(-c5cnc(-n6cccn6)cn5)cc4n32)cc1 (stereo not drawn) [T.21]	1000 to 10000 nM
COc1ncc(-c2ccc3nc4n(c3c2)C(c2ccccc2)COC4)cn1 (stereo not drawn) [T.22]	1000 to 10000 nM
c1ccc(C2COCc3nc4ccc(-c5cnc(-n6cccn6)nc5)cc4n32)cc1 (stereo not drawn) [T.23]	1000 to 10000 nM
c1ccc(C2COCc3nc4ccc(-c5cnc(NC6CC6)nc5)cc4n32)cc1 (stereo not drawn) [T.24]	1000 to 10000 nM
c1ccc(C2COCc3nc4ccc(-c5cncnc5)cc4n32)cc1 (stereo not drawn) [T.26]	10000 to 100000 nM
c1ccc(C2COCc3nc4ccc(-c5ccc(NCCN6CCOCC6)nc5)cc4n32)cc1 (stereo not drawn) [T.28]	10000 to 100000 nM
c1ccc(C2COCc3nc4ccc(-c5cnc6ccoc6c5)cc4n32)cc1 (stereo not drawn) [T.29]	1000 to 10000 nM
Cc1cc(-c2ccc3nc4n(c3c2)C(c2ccccc2)COC4)cnc1OC(C)C (stereo not drawn) [T.30]	1000 to 10000 nM
Cc1ncc(-c2ccc3nc4n(c3c2)C(c2ccccc2)COC4)cn1 (stereo not drawn) [T.31]	1000 to 10000 nM
Cn1cnc2cc(-c3ccc4nc5n(c4c3)C(c3ccccc3)COC5)cnc21 (stereo not drawn) [T.32]	10000 to 100000 nM
FC(F)(F)c1ccc(-c2ccc3nc4n(c3c2)C(c2ccccc2)COC4)cn1 (stereo not drawn) [T.33]	1000 to 10000 nM
Cc1cc(-c2ccc3nc4n(c3c2)C(c2ccccc2)COC4)cnc1N1CCN(C)CC1 (stereo not drawn) [T.34]	1000 to 10000 nM
Fc1cccc(C2COCc3nc4ccc(-c5cnc(N6CCOCC6)nc5)cc4n32)c1 (stereo not drawn) [U.2, 4-(3-Fluorophenyl)-7-(2-morpholinopyrimidin-5-yl)-3,4-dihydro-1H-benzo[4,5]imidazo[2,1-c][1,4]oxazine]	1000 to 10000 nM
CC(C)(O)c1ncc(-c2ccc3nc4n(c3c2)[C@H](c2ccccc2)CCC4)cn1 [Y.3]	1000 to 10000 nM
CC(C)(O)c1ncc(-c2ccc3nc4n(c3c2)[C@H](c2ccccc2)CC4)cn1 [Y.4]	10000 to 100000 nM
COc1ccccc1[C@@H]1CCCc2nc3ccc(-c4cnc(C(C)(C)O)nc4)cn3c21 [Y.5]	1000 to 10000 nM
Cc1ccc(C)c([C@@H]2CCc3nc4ccc(-c5cnc(C(C)(C)O)nc5)cc4n32)c1 [Y.9]	1000 to 10000 nM
CC(C)(O)c1ncc(-c2ccc3nc4n(c3n2)[C@@]2(CCOc3ccccc32)COC4)cn1 [Y.15]	1000 to 10000 nM

Continued, values first:

IC50	SMILES
1000 to 10000 nM	c1ccc(C2COCc3nc4ccc(-c5cnc(NC6CCCC6)nc5)cc4n32)cc1 (stereo not drawn) [T.17]
< 1000 nM	c1ccc(C2COCc3nc4ccc(-c5ccc(N6CCOCC6)nc5)cc4n32)cc1 (stereo not drawn) [T.25]
< 1000 nM	CC(C)(O)c1ncc(-c2ccc3nc4n(c3c2)C(c2ccccc2)COC4)cn1 (stereo not drawn) [T.35]
< 1000 nM	Fc1ccc(F)c(C2COCc3nc4ccc(-c5cnc(N6CCOCC6)nc5)cc4n32)c1 (stereo not drawn) [U.1]
< 1000 nM	O=C1NCC2CN(c3ncc(-c4ccc5nc6n(c5c4)C(c4cccc(F)c4)COC6)cn3)CCN12 (stereo not drawn) [V.1]
< 1000 nM	O=C1NCC2CN(c3ncc(-c4ccc5nc6n(c5c4)C(c4ccccc4Cl)COC6)cn3)CCN12 (stereo not drawn) [V.2]
< 1000 nM	O=C1NCC2CN(c3ncc(-c4ccc5nc6n(c5c4)C4(CCc5ccccc54)COC6)cn3)CCN12 (stereo not drawn) [V.3]
< 1000 nM	OC1CCN(c2ncc(-c3ccc4nc5n(c4c3)[C@@H](c3ccccc3)COC5)cn2)CC1(F)F (stereo partly drawn) [W.1]
< 1000 nM	OC1CC2(CCN(c3ncc(-c4ccc5nc6n(c5c4)[C@@H](c4ccccc4)COC6)cn3)CC2)C1 [W.2]
< 1000 nM	O=S1(=O)CCN(c2ncc(-c3ccc4nc5n(c4c3)[C@@H](c3ccccc3)COC5)cn2)CC1 [W.3]
< 1000 nM	OC1CCN(c2ncc(-c3ccc4nc5n(c4c3)C(c3cccc(F)c3)COC5)cn2)CC1(F)F (stereo not drawn) [X.1]
< 1000 nM	OC1CC2(CCN(c3ncc(-c4ccc5nc6n(c5c4)C(c4cccc(F)c4)COC6)cn3)CC2)C1 (stereo not drawn) [X.2]
< 1000 nM	Fc1cccc(C2COCc3nc4ccc(-c5cnc(N6CCCOCC6)nc5)cc4n32)c1 (stereo not drawn) [X.3]
< 1000 nM	c1ccc([C@H]2CCCc3nc4ccc(-c5cnc(N6CCOCC6)nc5)cc4n32)cc1 [Y.1]
< 1000 nM	CC(C)(O)c1ncc(-c2ccc3nc4n(c3c2)[C@@H](c2ccccc2)CCC4)cn1 [Y.2]
< 1000 nM	COc1ccccc1[C@H]1CCCc2nc3ccc(-c4cnc(C(C)(C)O)nc4)cn3c21 [Y.6]
< 1000 nM	Fc1cccc([C@H]2COCc3nc4ccc(-c5cnc(N6CCOCC6)nc5)cc4n32)c1 [Y.7]
< 1000 nM	Cc1ccc(C)c([C@H]2CCc3nc4ccc(-c5cnc(C(C)(C)O)nc5)cc4n32)c1 [Y.8]
< 1000 nM	c1ccc([C@H]2CCc3nc4ccc(-c5cnc(N6CCOCC6)nc5)nc4n32)cc1 [Y.10]
< 1000 nM	OC1CCN(c2ncc(-c3ccc4nc5n(c4n3)[C@@H](c3ccccc3)CC5)cn2)CC1 [Y.11]
< 1000 nM	CC(C)(O)c1ncc(-c2ccc3nc4n(c3n2)[C@@]2(COC4)COc3ccccc32)cn1 [Y.13]
< 1000 nM	CC(C)(O)c1ncc(-c2ccc3nc4n(c3n2)[C@]2(CCOc3ccccc32)COC4)cn1 [Y.14]
< 1000 nM	COc1ccccc1[C@H]1COCc2nc3ccc(-c4cnc(C(C)(C)O)nc4)cc3n21 [Z.1]
< 1000 nM	CC(C)(O)c1ncc(-c2ccc3nc4n(c3c2)C(c2c(Cl)cccc2Cl)COC4)cn1 (stereo not drawn) [Z.2]
